{"source": "patent US8921372B2", "about": "“Inhibitors of hepatitis C virus” (Theravance Biopharma R&D IP, LLC, priority 2010, dated 2014)", "data": [{"tested_on": "HCV genotype 1b replicon cell line (APC144; Huh7 cell background)", "assay": "HCV Genotype 1b Replicon Assay (Renilla luciferase readout)", "assay_type": "cell-based", "conditions": "Hepatitis C virus, Huh-7; read-out: Genotype 1b (pEC50 class, HCV genotype 1b replicon assay) (converted)", "from_the_text": "Assay 1: HCV Genotype 1b Replicon Assay\nThe HCV genotype 1b replicon cell line was obtained from Apath LLC (Brooklyn, N.Y.) (APC144; Huh7 cell background). This subgenomic replicon contains the N-terminus of the HCV core protein fused to the neomycin-resistance selectable marker. The EMCV IRES lies downstream and drives expression of humanized Renilla luciferase fused to the non-structural proteins NS3-NS5B. This cell line was used to determine compound potency using the luciferase activity readout as a measurement of compound inhibition of replicon levels.\n(§1) Cells were grown at 37° C. in a 5% CO2 humidified incubator in DMEM (Invitrogen) with 10% FBS (HyClone), 1×NEAA (Invitrogen), 1× Pen-Strep (Invitrogen), and 500 μg/mL G418 (Invitrogen). On day 1 of the assay, cells were plated at 10,000 cells/well in white 96-well tissue culture plates (Costar) in 200 μL media lacking G418. Four hours later, once the cells have adhered, the media was removed and replaced with media (no G418) containing dose-responses of test compounds. Compounds were initially diluted in DMSO and then diluted another 200× in media to bring the final DMSO concentration down to 0.5%. The cells were incubated with test compounds for 48 hours. At the end of the incubation period, media and compound were removed from the plates and the luciferase activity was determined using Promega Renilla-Glo reagents.\nTo analyze the data, the luciferase activity was plotted vs. the compound concentration, and EC50 values were determined from a 4-parameter robust fit model with the GraphPad Prism software package (GraphPad Software, Inc., San Diego, Calif.). Results are expressed as the negative decadic logarithm of the EC50 value, pEC50.\nTest compounds having a higher pEC50 value in this assay show greater inhibition of HCV genotype 1b replication.", "units": {"EC50": "nM"}, "values": [{"smiles": "COC(=O)N[C@H](C(=O)N1CCC[C@H]1c1nc(-c2ccc(-c3ccc(NC(=O)c4ccc(N5CCN(C(=O)C6CC6)CC5)nc4)cc3)cc2)c[nH]1)C(C)C", "note": "[Example 5, ((S)-1-{(S)-2-[4-(4′-{[6-(4-Cyclopropanecarbonyl-piperazin-1-yl)-pyridine-3-carbonyl]-amino}-biphenyl-4-yl)-1H-imidazol-2-yl]-pyrrolidine-1-carbonyl}-2-methyl-propyl)-carbamic acid methyl ester]", "EC50": "< 0.1"}, {"smiles": "COC(=O)N[C@H](C(=O)N1CCC[C@H]1c1nc(-c2ccc(-c3ccc(C(=O)Nc4ccc(N5CCN(C(=O)[C@]6(C)CCCN6C(=O)CO)C[C@H]5C)nc4)cc3OC(F)(F)F)cc2)c[nH]1)C(C)C", "note": "[Example 68]", "EC50": "< 0.1"}]}, {"tested_on": "HCV genotype 1a replicon cell line (APC89; Huh7.5 cell background)", "assay": "HCV Genotype 1a Replicon Assay (NS3-specific protease activity readout)", "assay_type": "cell-based", "conditions": "Hepatitis C virus, 72 hour incubation, read-out: Genotype 1a (pEC50 class, HCV genotype 1a replicon assay) (converted)", "description": "Assay 2: HCV Genotype 1a Replicon Assay\nThe HCV genotype 1a replicon cell line was obtained from Apath LLC (APC89; Huh7.5 cell background). This subgenomic replicon contains the N-terminus of the HCV core protein fused to the neomycin-resistance selectable marker. The EMCV IRES lies downstream and drives expression of the non-structural proteins NS3-NS5B. Compound potencies were determined using the NS3-specific protease activity in lysates as a measurement of compound inhibition of replicon levels.\nas §1, with “850” for “500”, “15,000” for “10,000”, “black” for “white”, “had” for “have”, “48 or 72” for “48”, “plates.” for “plates and the luciferase activity was determined using Promega Renilla-Glo reagents.”\nTo determine the NS3-specific protease activity in lysates, the cells were lysed at room temperature in 50 μL/well of 50 mM Hepes pH 7.5, 150 mM NaCl, 15% Glycerol, 0.15% Triton X-100, 10 mM DTT for 20 minutes with shaking. 50 μL of an NS3/4a protease-specific FRET substrate (Anaspec RET S1 Cat#22991) was then added to the wells at a final concentration of 15 μM. The plates were incubated at 37° C. for 20 minutes, which corresponds to a timepoint at which the protease activity is still in the linear phase. Protease activity was determined by measuring fluorescence (Excitation: 340 nm; Emission: 509 nm).\nTo analyze the data, the fluorescence was plotted vs. the compound concentration, and EC50 values were determined from a 4-parameter robust fit model using GraphPad Prism software.", "units": {"EC50": "nM"}, "values": [{"smiles": "COC(=O)N[C@H](C(=O)N1CCC[C@H]1c1nc(-c2ccc(-c3ccc(NC(=O)c4ccc(N5CCN(C(=O)C6CC6)CC5)nc4)cc3)cc2)c[nH]1)C(C)C", "note": "[Example 5, ((S)-1-{(S)-2-[4-(4′-{[6-(4-Cyclopropanecarbonyl-piperazin-1-yl)-pyridine-3-carbonyl]-amino}-biphenyl-4-yl)-1H-imidazol-2-yl]-pyrrolidine-1-carbonyl}-2-methyl-propyl)-carbamic acid methyl ester]", "EC50": "1 to 10"}, {"smiles": "COC(=O)N[C@H](C(=O)N1CCC[C@H]1c1nc(-c2ccc(-c3ccc(C(=O)Nc4ccc(N5CCN(C(=O)[C@]6(C)CCCN6C(=O)CO)C[C@H]5C)nc4)cc3OC(F)(F)F)cc2)c[nH]1)C(C)C", "note": "[Example 68]", "EC50": "0.1 to 1"}, {"smiles": "COC(=O)N[C@H](C(=O)N1CCC[C@H]1c1nc(-c2ccc(-c3cc(F)c(NC(=O)c4ccc(N5CCN(C(=O)c6ncccn6)C[C@H]5C)nc4)cc3OC(F)(F)F)cc2)c[nH]1)C(C)C", "note": "[Example 27-35]", "EC50": "0.1 to 1"}, {"smiles": "COC(=O)N[C@H](C(=O)N1CCC[C@H]1c1nc(-c2ccc(-c3ccc(NC(=O)c4ccc(N5C[C@H](C)N(C(=O)c6c[nH]cn6)C[C@H]5C)nc4)c(C)n3)cc2)c[nH]1)C(C)C", "note": "[Example 75]", "EC50": "1 to 10"}, {"smiles": "CCOc1cc(NC(=O)c2ccc(N3CCN(C(=O)c4c[nH]cn4)C[C@H]3C)nc2)ccc1-c1ccc(-c2c[nH]c([C@@H]3CCCN3C(=O)[C@@H](NC(=O)OC)C(C)C)n2)cc1", "note": "[Example 24]", "EC50": "0.1 to 1"}, {"smiles": "COC(=O)N[C@H](C(=O)N1CCC[C@H]1c1nc(-c2ccc(-c3cc(Cl)c(NC(=O)c4ccc(N5CCN(C(=O)[C@]6(C)CCCN6C(=O)c6c[nH]cn6)C[C@H]5C)nc4)cc3OC(F)(F)F)cc2)c[nH]1)C(C)C", "note": "[Example 27-71]", "EC50": "< 0.1"}, {"smiles": "CNC(=O)N1CCN(c2ccc(C(=O)Nc3cc(OC(F)(F)F)c(-c4ccc(-c5c[nH]c([C@@H]6CCCN6C(=O)[C@@H](NC(=O)OC)C(C)C)n5)cc4)cc3OC)cn2)[C@H](C)C1", "note": "[Example 27-32]", "EC50": "0.1 to 1"}, {"smiles": "COC(=O)N[C@H](C(=O)N1CCC[C@H]1c1nc(-c2ccc(-c3cc(F)c(NC(=O)c4ccc(N5CCN(C(=O)[C@]6(C)CCCN6)C[C@H]5C)nc4)cc3OC(F)(F)F)cc2)c[nH]1)C(C)C", "note": "[Example 27-9]", "EC50": "1 to 10"}, {"smiles": "COC(=O)N[C@H](C(=O)N1CCC[C@H]1c1nc(-c2ccc(-c3ccc(NC(=O)c4ccc(N5CCN(C(=O)[C@H]6CC6(C)C)C[C@H]5C)nc4)cc3OC(F)(F)F)nc2)c[nH]1)C(C)C", "note": "[Example 76, {(S)-1-[(S)-2-(4-{6-[4-({6-[(R)-4-((S)-2,2-Dimethyl-cyclopropanecarbonyl)-2-methyl-piperazin-1-yl]-pyridine-3-carbonyl}-amino)-trifluoromethoxyphenyl]-pyridin-3-yl}-1H-imidazol-2-yl)-pyrrolidine-1-carbonyl]-2-methyl-propyl}-carbamic acid methyl ester]", "EC50": "0.1 to 1"}, {"smiles": "COC(=O)N[C@H](C(=O)N1CCC[C@H]1c1nc(-c2ccc(-c3cc(F)c(NC(=O)c4ccc(N5CCN(C(=O)NC6CC6)C[C@H]5C)nc4)cc3OC(F)(F)F)cc2)c[nH]1)C(C)C", "note": "[Example 27-40]", "EC50": "0.1 to 1"}, {"smiles": "COC(=O)N[C@H](C(=O)N1CCC[C@H]1c1nc(-c2ccc(-c3cc(Cl)c(NC(=O)c4ccc(N5CCN(C(=O)c6c[nH]cn6)C[C@H]5C)nc4)cc3OC(F)(F)F)cc2)c[nH]1)C(C)C", "note": "[Example 27-66]", "EC50": "< 0.1"}, {"smiles": "COC(=O)N[C@H](C(=O)N1CCC[C@H]1c1nc(-c2ccc(-c3ccc(C(=O)Nc4ccc(N5CCN(C(=O)[C@]6(C)CCCN6C(=O)[C@@H](NC(=O)OC)C(C)O)C[C@H]5C)nc4)cc3OC(F)(F)F)cc2)c[nH]1)C(C)C", "note": "(stereo partly shown) [Example 67]", "EC50": "0.1 to 1"}, {"smiles": "COC(=O)N[C@H](C(=O)N1CCC[C@H]1c1nc(-c2ccc(-c3ccc(NC(=O)c4ccc(N5C[C@H](C)N(C(=O)C6CC6)C[C@H]5C)nc4)c(C)n3)cc2)c[nH]1)C(C)C", "note": "[Example 73]", "EC50": "1 to 10"}, {"smiles": "COCCNC(=O)N1CCC[C@@]1(C)C(=O)N1CCN(c2ccc(C(=O)Nc3cc(OC(F)(F)F)c(-c4ccc(-c5c[nH]c([C@@H]6CCCN6C(=O)[C@@H](NC(=O)OC)C(C)C)n5)cc4)cc3Cl)cn2)[C@H](C)C1", "note": "[Example 27-74]", "EC50": "< 0.1"}, {"smiles": "COC(=O)N[C@H](C(=O)N1CCC[C@H]1c1nc(-c2ccc(-c3ccc(C(=O)Nc4ccc(N5CCN(C(=O)[C@]6(C)CCCN6C(=O)[C@@H](NC(=O)OC)C(C)(C)C)C[C@H]5C)nc4)cc3OC(F)(F)F)cc2)c[nH]1)C(C)C", "note": "[Example 70]", "EC50": "0.1 to 1"}, {"smiles": "CNC(=O)N1C[C@@H](C)N(c2ccc(C(=O)Nc3ccc(-c4ccc(-c5c[nH]c([C@@H]6CCCN6C(=O)[C@@H](NC(=O)OC)C(C)C)n5)cc4)nc3C)cn2)C[C@@H]1C", "note": "[Example 74]", "EC50": "1 to 10"}, {"smiles": "COCCNC(=O)N1CCC[C@@]1(C)C(=O)N1C[C@@H](C)N(c2ccc(C(=O)Nc3cc(OC(F)(F)F)c(-c4ccc(-c5c[nH]c([C@@H]6CCCN6C(=O)[C@@H](NC(=O)OC)C(C)C)n5)cc4)cc3Cl)cn2)C[C@@H]1C", "note": "[Example 28-43]", "EC50": "< 0.1"}, {"smiles": "COC(=O)N[C@H](C(=O)N1CCC[C@H]1c1nc(-c2ccc(-c3cc(Cl)c(NC(=O)c4ccc(N5CCN(C(=O)[C@]6(C)CCCN6C(=O)[C@@H](N)C(C)C)C[C@H]5C)nc4)cc3OC(F)(F)F)cc2)c[nH]1)C(C)C", "note": "[Example 27-75]", "EC50": "< 0.1"}, {"smiles": "CCOc1cc(NC(=O)c2ccc(N3CCN(C(=O)NC)C[C@H]3C)nc2)ccc1-c1ccc(-c2c[nH]c([C@@H]3CCCN3C(=O)[C@@H](NC(=O)OC)C(C)C)n2)cc1", "note": "[Example 23]", "EC50": "0.1 to 1"}, {"smiles": "COC(=O)N[C@H](C(=O)N1CCC[C@H]1c1nc(-c2ccc(-c3cc(F)c(NC(=O)c4ccc(N5CCN(C(=O)NC(C)C)C[C@H]5C)nc4)cc3OC(F)(F)F)cc2)c[nH]1)C(C)C", "note": "[Example 27-39]", "EC50": "0.1 to 1"}, {"smiles": "COC(=O)N[C@H](C(=O)N1CCC[C@H]1c1nc(-c2ccc(-c3cc(Cl)c(NC(=O)c4ccc(N5C[C@H](C)N(C(=O)[C@]6(C)CCCN6C(=O)CN(C)C)C[C@H]5C)nc4)cc3OC(F)(F)F)cc2)c[nH]1)C(C)C", "note": "[Example 28-41]", "EC50": "< 0.1"}, {"smiles": "COC(=O)N[C@H](C(=O)N1CCC[C@H]1c1nc(-c2ccc(-c3cc(F)c(NC(=O)c4ccc(N5CCN(C(=O)[C@]6(C)CCCN6C(=O)OC(C)(C)C)C[C@H]5C)nc4)cc3OC(F)(F)F)cc2)c[nH]1)C(C)C", "note": "[Example 27-8]", "EC50": "< 0.1"}, {"smiles": "COC(=O)N[C@H](C(=O)N1CCC[C@H]1c1nc(-c2ccc(-c3cc(OC)c(NC(=O)c4ccc(N5CCN(C(=O)c6c[nH]cn6)C[C@H]5C)nc4)cc3OC(F)(F)F)cc2)c[nH]1)C(C)C", "note": "[Example 27-29]", "EC50": "0.1 to 1"}, {"smiles": "COC(=O)N[C@H](C(=O)N1CCC[C@H]1c1nc(-c2ccc(-c3cc(Cl)c(NC(=O)c4ccc(N5CCN(C(=O)[C@]6(C)CCCN6C(=O)CO)C[C@H]5C)nc4)cc3OC(F)(F)F)cc2)c[nH]1)C(C)C", "note": "[Example 27-76]", "EC50": "< 0.1"}, {"smiles": "COC(=O)N[C@H](C(=O)N1CCC[C@H]1c1nc(-c2ccc(-c3cc(F)c(NC(=O)c4ccc(N5CCN(C(=O)[C@]6(C)CCCN6C(=O)[C@H](C)O)C[C@H]5C)nc4)cc3OC(F)(F)F)cc2)c[nH]1)C(C)C", "note": "[Example 27-49]", "EC50": "< 0.1"}, {"smiles": "CNC(=O)C1CCC[C@@]1(C)C(=O)N1C[C@@H](C)N(c2ccc(C(=O)Nc3cc(OC(F)(F)F)c(-c4ccc(-c5c[nH]c([C@@H]6CCCN6C(=O)[C@@H](NC(=O)OC)C(C)C)n5)cc4)cc3Cl)cn2)C[C@@H]1C", "note": "(stereo partly shown) [Example 28-42]", "EC50": "< 0.1"}]}]}
